Assays:
wheat = experiment: Test B pre/postemergence wheat; type: in vivo, Triticum aestivum
Procedure, shortened: (§1)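 Herbicidal effect was estimated by eye on a ten-point control scale after plants spent twelve to sixteen days in a greenhouse following soil or foliar treatment. Foliar sprays targeted plants at one to four leaves; all doses were formulated in a non-phytotoxic solvent with surfactant.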

blackgrass = experiment: Test B pre/postemergence blackgrass; type: in vivo, Alopecurus myosuroides
Procedure, shortened: as §1

velvetleaf = experiment: Test B pre/postemergence velvetleaf; type: in vivo, Abutilon theophrasti
Procedure, shortened: as §1

bedstraw = experiment: Test B pre/postemergence bedstraw; type: in vivo, Galium aparine
Procedure, shortened: as §1

[1] = Postemergence, Rate 125 g/ha, scale 0 to 10, 0 is no effect, 10 is complete control
[2] = Postemergence, Rate 250 g/ha, scale 0 to 10, 0 is no effect, 10 is complete control
[3] = Preemergence, Rate 62 g/ha, scale 0 to 10 (0 no effect, 10 complete control)
[4] = Preemergence, Rate 250 g/ha, scale of 0 to 10 where 0 is no effect and 10 is complete control
[5] = Preemergence, Rate 500 g/ha, scale of 0 to 10 where 0 is no effect and 10 is complete control
[6] = Rate 62 g/ha, Postemergence, scale of 0 to 10 where 0 is no effect and 10 is complete control
[7] = Rate 500 g/ha, Postemergence, scale 0 to 10, 0 no effect, 10 complete control
[8] = Preemergence, Rate 62 g/ha, scale of 0 to 10 where 0 is no effect and 10 is complete control
[9] = Rate 62 g/ha, Postemergence, scale 0 to 10 (0 no effect, 10 complete control)
[10] = Rate 125 g/ha, Postemergence, scale of 0 to 10 where 0 is no effect and 10 is complete control
[11] = Rate 250 g/ha, Postemergence, scale of 0 to 10 where 0 is no effect and 10 is complete control
[12] = Postemergence, Rate 62 g/ha, scale 0 to 10, 0 is no effect, 10 is complete control
[13] = Postemergence, Rate 250 g/ha, scale 0 to 10, 0 no effect, 10 complete control
[14] = Preemergence, Rate 125 g/ha, scale 0 to 10 (0 no effect, 10 complete control)
[15] = Preemergence, Rate 500 g/ha, scale 0 (no effect) to 10 (complete control)
[16] = Rate 125 g/ha, Postemergence, scale 0 to 10, 0 no effect, 10 complete control

CC(C)N(C(=O)n1oc(=O)n(C)c1=O)c1ccc(F)cc1F [Compound 368]
7: Plant response rating, Blackgrass (blackgrass; [1]) | Blackgrass plant response rating (blackgrass; [6]) | Velvetleaf plant response rating (0 to 10 scale) (velvetleaf; Preemergence, Rate 125 g/ha) | Plant response rating, Velvetleaf (velvetleaf; [7])
4: Plant response rating, Wheat (wheat; [2]) | Wheat plant response rating (0 to 10 scale) (wheat; Preemergence, Rate 125 g/ha) | Plant response rating, Velvetleaf (velvetleaf; [3]) | Plant response rating, Bedstraw (bedstraw; [2])
10: Wheat plant response rating (wheat; [5]) | Blackgrass plant response rating (blackgrass; [4]) | Blackgrass plant response rating (blackgrass; [5]) | Velvetleaf plant response rating (velvetleaf; [4]) | Velvetleaf plant response rating (velvetleaf; [5]) | Bedstraw plant response rating (bedstraw; [4]) | Bedstraw plant response rating (bedstraw; [5])
2: Bedstraw plant response rating (0 to 10 scale) (bedstraw; Preemergence, Rate 125 g/ha)
0: Plant response rating, Wheat (wheat; [3]) | Wheat plant response rating (wheat; [6]) | Plant response rating, Velvetleaf (velvetleaf; [1]) | Velvetleaf plant response rating (velvetleaf; [6]) | Plant response rating, Bedstraw (bedstraw; [3]) | Bedstraw plant response rating (bedstraw; [6])
8: Wheat plant response rating (wheat; [4]) | Plant response rating, Blackgrass (blackgrass; [2]) | Plant response rating, Blackgrass (blackgrass; [3]) | Plant response rating, Blackgrass (blackgrass; [7])
3: Plant response rating, Wheat (wheat; [1]) | Plant response rating, Velvetleaf (velvetleaf; [2])
9: Blackgrass plant response rating (0 to 10 scale) (blackgrass; Preemergence, Rate 125 g/ha)
6: Plant response rating, Wheat (wheat; [7])

Cc1cccc(C(C)(C)C)c1-n1c(=O)on(C(=O)N(c2ccccc2)C(C)C)c1=O [Compound 303]
0: Wheat plant response rating (wheat; [8]) | Wheat plant response rating (0 to 10 scale) (wheat; Preemergence, Rate 125 g/ha) | Wheat plant response rating (wheat; [4]) | Wheat plant response rating (wheat; [5]) | Wheat plant response rating (wheat; [9]) | Wheat plant response rating (wheat; [10]) | Plant response rating, Wheat (wheat; [11]) | Blackgrass plant response rating (blackgrass; [8]) | Blackgrass plant response rating (0 to 10 scale) (blackgrass; Preemergence, Rate 125 g/ha) | Blackgrass plant response rating (blackgrass; [4]) | Blackgrass plant response rating (blackgrass; [5]) | Blackgrass plant response rating (blackgrass; [9]) | Blackgrass plant response rating (blackgrass; [10]) | Plant response rating, Blackgrass (blackgrass; [11]) | Blackgrass plant response rating (blackgrass; [7]) | Velvetleaf plant response rating (velvetleaf; [8]) | Velvetleaf plant response rating (0 to 10 scale) (velvetleaf; Preemergence, Rate 125 g/ha) | Velvetleaf plant response rating (velvetleaf; [4]) | Velvetleaf plant response rating (velvetleaf; [5]) | Velvetleaf plant response rating (velvetleaf; [9]) | Velvetleaf plant response rating (velvetleaf; [10]) | Plant response rating, Velvetleaf (velvetleaf; [11]) | Bedstraw plant response rating (bedstraw; [8]) | Bedstraw plant response rating (0 to 10 scale) (bedstraw; Preemergence, Rate 125 g/ha) | Bedstraw plant response rating (bedstraw; [4]) | Bedstraw plant response rating (bedstraw; [10]) | Bedstraw plant response rating (bedstraw; [7])

CN(C(=O)n1oc(=O)n(Cc2cccs2)c1=O)c1ccccc1 [Compound 83]
0: Wheat plant response rating (wheat; [12]) | Wheat plant response rating (wheat; [13]) | Wheat plant response rating (wheat; [3]) | Plant response rating, Wheat (wheat; [14]) | Plant response rating, Wheat (wheat; [4]) | Wheat plant response rating (wheat; [15]) | Wheat plant response rating (wheat; [16]) | Wheat plant response rating (wheat; [7]) | Blackgrass plant response rating (blackgrass; [12]) | Blackgrass plant response rating (blackgrass; [13]) | Blackgrass plant response rating (blackgrass; [3]) | Plant response rating, Blackgrass (blackgrass; [14]) | Plant response rating, Blackgrass (blackgrass; [4]) | Blackgrass plant response rating (blackgrass; [15]) | Blackgrass plant response rating (blackgrass; [16]) | Blackgrass plant response rating (blackgrass; [7]) | Velvetleaf plant response rating (velvetleaf; [12]) | Velvetleaf plant response rating (velvetleaf; [3]) | Plant response rating, Velvetleaf (velvetleaf; [14]) | Plant response rating, Velvetleaf (velvetleaf; [4]) | Velvetleaf plant response rating (velvetleaf; [15]) | Bedstraw plant response rating (bedstraw; [12]) | Bedstraw plant response rating (bedstraw; [13]) | Bedstraw plant response rating (bedstraw; [3]) | Plant response rating, Bedstraw (bedstraw; [14]) | Plant response rating, Bedstraw (bedstraw; [4]) | Bedstraw plant response rating (bedstraw; [15]) | Bedstraw plant response rating (bedstraw; [16]) | Bedstraw plant response rating (bedstraw; [7])
2: Velvetleaf plant response rating (velvetleaf; [13]) | Velvetleaf plant response rating (velvetleaf; [16])
4: Velvetleaf plant response rating (velvetleaf; [7])

From patent publication US6737383B1, “Herbicidal oxadiazolidines” (priority 1999, dated 2004)
